Experiments:
[1] = system: influenza virus A/WSN/33 (H1N1); experiment: microbe, parasite or virus in culture; format: cell-based; details: MDCK, 72 h; for inhibition at 12.5 µM / inhibition at 25 µM / inhibition at 50 µM / inhibition at 100 µM: H1N1|WSN, read-out: Antiviral activity in CPE assay; for EC50: read-out: Cytopathic Effect Assay (A/WSN/33, H1N1) EC50
in vitro [2] = format: cell-based; details: human
Procedure, shortened: (§1)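 Cells were seeded and compound medium added after 48 h, then incubated 72 h at 37 °C, 5% CO2. Viability was measured by MTT (4 h), then solubilization and absorbance at 620 nm after a further 3 h. DMSO-only wells were taken as 100% viable.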

HEK293T cells = experiment: in vitro; format: cell-based; details: human, 72 h
Procedure, shortened: as §1

in vitro [3] = format: cell-based, canine; details: dog
Procedure, shortened: as §1

MDCK cells = experiment: in vitro; format: cell-based, canine; details: dog, 72 h
Procedure, shortened: as §1

[4] = system: influenza virus A/WSN/33 (H1N1); experiment: Plaque inhibition assay in MDCK cells; format: cell-based; details: MDCK, read-out: Plaque Inhibition Assay (A/WSN/33, H1N1) Inhibition Rate; for inhibition at 100 µM: concentration 100 µM
[5] = biological target: ribonucleoprotein (RNP) of influenza virus (Influenza A virus, UniProt P15659); experiment: cell-based; details: HEK-293T, read-out: RNP Reconstitution Assay Inhibition Rate; for inhibition at 12.5 µM: concentration 12.5 µM; for inhibition at 100 µM: concentration 100 µM

COc1ccccc1OCCNC(=O)c1ccc(Nc2ccnc3c(C)cccc23)cc1 [Compound G20, N-[2-(2-Methoxyphenoxy)ethyl]-4-[(8-methylquinolin-4-yl)amino]benzamide]
inhibition at 12.5 µM [1]: 72 ± 6.36%
inhibition at 25 µM [1]: 28.6 ± 1.61%
inhibition at 50 µM [1]: 30.9 ± 0.88%
inhibition at 100 µM [1]: 31.1 ± 0.49%
EC50 [1]: > 100 µM
CC50 at 72 h (in vitro [2]): > 100 µM
HEK293T cells survival rate (HEK293T cells; 3.125 µmol·L−1): 96.66±8.01%
HEK293T cells survival rate (HEK293T cells; 6.25 µmol·L−1): 91.48±3.65%
HEK293T cells survival rate (HEK293T cells; 12.5 µmol·L−1): 94.07±9.07%
HEK293T cells survival rate (HEK293T cells; 25 µmol·L−1): 87.46±21.36%
HEK293T cells survival rate (HEK293T cells; 50 µmol·L−1): 80.21±1.35%
HEK293T cells survival rate (HEK293T cells; 100 µmol·L−1): 60.29±0.35%
CC50 at 72 h (in vitro [3]): < 10 µM
MDCK cells survival rate (MDCK cells; 12.5 µmol·L−1): 45.97±9.1%
MDCK cells survival rate (MDCK cells; 25 µmol·L−1): 8.61±0.42%
MDCK cells survival rate (MDCK cells; 50 µmol·L−1): 8.88±0.51%
MDCK cells survival rate (MDCK cells; 100 µmol·L−1): 8.66±0.17%
inhibition at 6 µM ([4]; concentration 6 µM): 74.3%
melting point: 150.2 to 151.7 °C
inhibition at 12.5 µM [5]: 6.69%

O=C(c1ccc(Nc2ccnc3cc(C(F)(F)F)ccc23)cc1)N1CCN(c2ccc(Cl)cc2)CC1 [Compound G17, [4-(4-Chlorophenyl)piperazin-1-yl]{4-{[7-(trifluoromethyl)quinolin-4-yl]amino}phenyl}methanone]
inhibition at 12.5 µM [1]: 33.5 ± 1.23%
inhibition at 25 µM [1]: 27.3 ± 3.16%
inhibition at 50 µM [1]: 21.1 ± 1.62%
inhibition at 100 µM [1]: 28.5 ± 7.81%
EC50 [1]: > 100 µM
CC50 at 72 h (in vitro [2]): > 100 µM
HEK293T cells survival rate (HEK293T cells; 3.125 µmol·L−1): 86.81±4.81%
HEK293T cells survival rate (HEK293T cells; 6.25 µmol·L−1): 89.66±6.31%
HEK293T cells survival rate (HEK293T cells; 12.5 µmol·L−1): 78.02±11.06%
HEK293T cells survival rate (HEK293T cells; 25 µmol·L−1): 62.61±12.04%
HEK293T cells survival rate (HEK293T cells; 50 µmol·L−1): 52.36±1.02%
HEK293T cells survival rate (HEK293T cells; 100 µmol·L−1): 59.17±1.33%
CC50 at 72 h (in vitro [3]): > 100 µM
MDCK cells survival rate (MDCK cells; 12.5 µmol·L−1): 71.49±1.03%
MDCK cells survival rate (MDCK cells; 25 µmol·L−1): 65.78±1.15%
MDCK cells survival rate (MDCK cells; 50 µmol·L−1): 63.22±11.25%
MDCK cells survival rate (MDCK cells; 100 µmol·L−1): 51.32±5.29%
inhibition at 100 µM [4]: 73.5%
melting point: 242 to 242.9 °C
inhibition at 12.5 µM [5]: 40.2%

COc1ccccc1OCCNC(=O)c1ccc(Nc2ccnc3ccccc23)cc1 [Compound G19, N-{2-(2-Methoxyphenoxy)ethyl}-4-(quinolin-4-ylamino)benzamide]
inhibition at 12.5 µM [1]: 131 ± 11.1%
inhibition at 25 µM [1]: 132 ± 4.75%
inhibition at 50 µM [1]: 138 ± 9.95%
inhibition at 100 µM [1]: 122 ± 5.08%
EC50 [1]: < 10 µM
CC50 at 72 h (in vitro [2]): > 100 µM
HEK293T cells survival rate (HEK293T cells; 3.125 µmol·L−1): 103.14±6.28%
HEK293T cells survival rate (HEK293T cells; 6.25 µmol·L−1): 103.54±9.29%
HEK293T cells survival rate (HEK293T cells; 12.5 µmol·L−1): 103.11±7.45%
HEK293T cells survival rate (HEK293T cells; 25 µmol·L−1): 97.97±3.74%
HEK293T cells survival rate (HEK293T cells; 50 µmol·L−1): 97.40±3.36%
HEK293T cells survival rate (HEK293T cells; 100 µmol·L−1): 112.18±7.45%
CC50 at 72 h (in vitro [3]): > 100 µM
MDCK cells survival rate (MDCK cells; 12.5 µmol·L−1): 90.89±5.31%
MDCK cells survival rate (MDCK cells; 25 µmol·L−1): 93.23±8.08%
MDCK cells survival rate (MDCK cells; 50 µmol·L−1): 102.17±1.95%
MDCK cells survival rate (MDCK cells; 100 µmol·L−1): 111.55±9.83%
inhibition at 100 µM [4]: 82.3%
melting point: 319.5 to 320.2 °C
inhibition at 100 µM [5]: 13.9%

COc1ccccc1OCCNC(=O)c1ccc(Nc2ccnc3ccc(C(F)(F)F)cc23)cc1 [Compound G26, N-[2-(2-Methoxyphenoxy)ethyl]-4-{[6-(trifluoromethyl)quinolin-4-yl]amino}benzamide]
inhibition at 12.5 µM [1]: 15.7 ± 1.06%
inhibition at 25 µM [1]: 16.8 ± 2.11%
inhibition at 50 µM [1]: 36.8 ± 1.79%
inhibition at 100 µM [1]: 49.7 ± 6.09%
EC50 [1]: > 100 µM
CC50 at 72 h (in vitro [2]): > 100 µM
HEK293T cells survival rate (HEK293T cells; 3.125 µmol·L−1): 104.54±2.55%
HEK293T cells survival rate (HEK293T cells; 6.25 µmol·L−1): 83.92±2.40%
HEK293T cells survival rate (HEK293T cells; 12.5 µmol·L−1): 78.70±2.98%
HEK293T cells survival rate (HEK293T cells; 25 µmol·L−1): 74.64±5.24%
HEK293T cells survival rate (HEK293T cells; 50 µmol·L−1): 72.10±1.56%
HEK293T cells survival rate (HEK293T cells; 100 µmol·L−1): 70.01±9.07%
CC50 at 72 h (in vitro [3]): > 100 µM
MDCK cells survival rate (MDCK cells; 12.5 µmol·L−1): 103.03±1.26%
MDCK cells survival rate (MDCK cells; 25 µmol·L−1): 105.52±6.56%
MDCK cells survival rate (MDCK cells; 50 µmol·L−1): 122.08±7.85%
MDCK cells survival rate (MDCK cells; 100 µmol·L−1): 133.91±11.97%
inhibition at 100 µM [4]: < 10%
melting point: 225.3 to 227.3 °C
inhibition at 100 µM [5]: 22.6%

O=C(NCCO)c1ccc(Nc2ccnc3cc(C(F)(F)F)ccc23)cc1 [Compound G04, N-(2-Hydroxyethyl)-4-{[7-(trifluoromethyl)quinolin-4-yl]amino}benzamide]
inhibition at 12.5 µM [1]: 55.3 ± 4.28%
inhibition at 25 µM [1]: 54.6 ± 4.19%
inhibition at 50 µM [1]: 57.1 ± 9.3%
inhibition at 100 µM [1]: 49.3 ± 0.74%
EC50 [1]: > 100 µM
CC50 at 72 h (in vitro [2]): > 100 µM
HEK293T cells survival rate (HEK293T cells; 3.125 µmol·L−1): 112.00±4.22%
HEK293T cells survival rate (HEK293T cells; 6.25 µmol·L−1): 100.01±1.56%
HEK293T cells survival rate (HEK293T cells; 12.5 µmol·L−1): 94.50±4.33%
HEK293T cells survival rate (HEK293T cells; 25 µmol·L−1): 91.99±5.43%
HEK293T cells survival rate (HEK293T cells; 50 µmol·L−1): 98.62±11.78%
HEK293T cells survival rate (HEK293T cells; 100 µmol·L−1): 96.30±10.52%
CC50 at 72 h (in vitro [3]): > 100 µM
MDCK cells survival rate (MDCK cells; 12.5 µmol·L−1): 118.54±1.29%
MDCK cells survival rate (MDCK cells; 25 µmol·L−1): 110.54±13.59%
MDCK cells survival rate (MDCK cells; 50 µmol·L−1): 126.43±7.03%
MDCK cells survival rate (MDCK cells; 100 µmol·L−1): 124.89±12.49%
inhibition at 100 µM [4]: 59.3%
melting point: 262.5 to 264.1 °C
inhibition at 100 µM [5]: 14%

Reference: paper PMC9181126, “Design, Synthesis, Molecular Docking Analysis and Biological Evaluations of 4-[(Quinolin-4-yl)amino]benzamide Derivatives as Novel Anti-Influenza Virus Agents” (International Journal of Molecular Sciences, 2022)
